Molecular target: integrase (Human immunodeficiency virus type 1 group M subtype B, UniProt P04585)
Test: Integrase inhibition assay (microtiter plate strand transfer, substrate DNA/target DNA, anti-digoxigenin ELISA)
Assay type: biochemical
Details: concentration of the compound at percent inhibition 50%; 30° C. for 1 hour; OD at 405 nm
Description: The inhibitory activities against integrase of the compounds in the present invention have been determined by the assay described below.
(1) Preparation of DNA Solutions.
Substrate DNA and target DNA, which sequences were indicated below, were synthesized by Amersham Pharmacia Biotech and dissolved in KTE buffer (composition: 100 mM KCl, 1 mM EDTA, 10 mM Tris-HCl (pH 7.6)) at concentration of 2 pmol/μl and 0.5 pmol/μl, respectively. The DNA solutions were annealed with each complement by slowly cooling after heating.
(2) Calculations of the Percent Inhibitions (the IC50 Values of Test Compounds)
Streptavidin, obtained from Vector Laboratories, was dissolved in 0.1 M carbonate buffer (composition: 90 mM Na2CO3, 10 mM NaHCO3) at concentration of 40 µg/ml. After coating each well of microtiter plates (obtained from NUNC) with 50 μL of the above solution at 4° C. over night, each well was washed twice with PBS (composition: 13.7 mM NaCl, 0.27 mM KCl, 0.43 mM Na2HPO4, 0.14 mM KH2PO4) and blocked with 300 μl of 1% skim milk in PBS for 30 min. Additionally, each well was washed twice with PBS and added 50 μl of substrate DNA solution (0.04 pmol/μl) diluted to one fiftieth with NTE buffer (composition: 1M NaCl, 10 mM Tris-HCl (pH8.0), 1 mM EDTA). The microtiter plates were kept at room temperature for 30 min. Then, each well was washed twice with PBS and once with H2O.
Subsequently, in the each well prepared above were added 45 μl of the reaction buffer prepared from 12 μl of the buffer (composition: 150 mM MOPS (pH 7.2), 75 mM MnCl2, 50 mM 2-mercaptoethanol, 25% glycerol, 500 μg/ml bovine serum albumin-fraction V), 1 μl of target DNA (5 pmol/μl), and 32 μl of the distilled water. Additionally, 6 μl of either a test compound in DMSO or DMSO for positive control (PC) was mixed with the above reaction buffer, then 9 μl of an integrase solution (30 pmol) was added and mixed well. In the well of negative control (NC) was added 9 μl of the integrase dilution buffer (composition: Hepes (pH7.6), 400 mM potassium glutamate, 1 mM EDTA, 0.1% NP-40, 20% glycerol, 1 mM DTT, 4M urea).
The microtiter plates were incubated at 30° C. for 1 hour. The reaction solution was removed and each well was washed twice with PBS. Subsequently, each well of the microtiter plates was filled with 100 μl of anti-digoxigenin antibody labeled with alkaline phosphatase (Sheep Fab fragment: obtained from Boehringer) and incubated at 30° C. for 1 hour. Then, each well was washed twice with 0.05% Tween20 in PBS and once with PBS. Next, 150 μl of the Alkaline phosphatase reaction buffer (composition: 10 mM p-Nitrophenylphosphate (obtained from Vector Laboratories), 5 mM MgCl2, 100 mM NaCl, 100 mM Tris-HCl (pH 9.5)) was added in each well. The microtiter plates were incubated at 30° C. for 2 hours. The optical density (OD) at 405 nm of each well was measured and the percent inhibition was determined by the following expression. The percent inhibition (%)=100[1−{(C abs.−NC abs.)/(PC abs.−NC abs.)}] • C abs.; the OD of the well of the • NC abs.: the OD of the negative control (NC) • PC abs.: the OD of the positive control (PC)
When the percent inhibition (%) is X % at the concentration of x μg/ml and the percent inhibition (%) is Y % at the concentration of y μg/ml, one of which is more than 50% and the other is less than 50%, IC50 can be determined by the following expression. IC50(μg/ml)=x−{(X−50),(x−y)/(X−Y)}
Compound No. in the Table 1 is the same as compound No. of the above example.
“3-hydroxy-1-isopropyl-4-(6-phenethylpyrimidine-4-yl)-1,5-dihydropyrrole-2-one [Compound H-7]” gave an IC50 of 0.68 µg/mL.

Same assay, conditions: concentration of the compound at percent inhibition 50%; 30° C. for 1 hour; OD at 405 nm; read-out: IC50 (converted)
`O=c1c(O)c(-c2nnc(Cc3ccc(F)cc3)o2)oc2ccccc12` [Compound C-26, 2-[5-(4-fluorobenzyl)-[1,3,4]-oxadiazole-2-yl]-3-hydroxy-4H-1-benzopyrane-4-one] showed an IC50 of 1060 nM. With `Cn1ccc(-c2nnc(Cc3ccc(F)cc3)o2)c(O)c1=O` [Compound K-4, 4-[5-(4-fluorobenzyl)-[1,3,4]oxadiazole-2-yl]-3-hydroxy-1-methyl-1H-pyridine-2-one] the IC50 was 1890 nM. `O=C1CCCC(C(=O)c2ccc(Cc3ccc(F)cc3)o2)=C1O` [Compound F-4, 3-[5-(4-fluorobenzyl)furan-2-carbonyl]-2-hydroxy-2-cyclohexene-1-one] gave an IC50 of 1810 nM. `CN1CC(C(=O)c2cccc(Cc3ccc(F)cc3)c2)=C(O)C1=O` [Compound A-12-a, 4-[3-(4-Fluorobenzyl)benzoyl]-3-hydroxy-1-methyl-1,5-dihydropyrrole-2-one] gave an IC50 of 1010 nM. `Cc1nc(=O)c(O)c(-c2ccc(Cc3ccc(F)cc3)cn2)[nH]1` [Compound G-7, 6-[5-(4-fluorobenzyl)pyridine-2-yl]-5-hydroxy-2-methyl-1H-pyrimidine-4-one] showed an IC50 of 1540 nM. Work on `O=C(c1ccc(Cc2ccc(F)cc2)o1)c1[nH]ccc(=O)c1O` [Compound L-4, 2-[5-(4-fluorobenzyl)furan-2-carbonyl]-3-hydroxy-1H-pyridine-4-one] yielded an IC50 of 1560 nM. In the case of `CCN1CCC(C(=O)c2ccc(Cc3ccc(F)cc3)o2)=C(O)C1=O` [Compound I-4, 1-ethyl-4-[5-(4-fluorobenzyl)furan-2-carbonyl]-3-hydroxy-5,6-dihydro-1H-pyridine-2-one], the IC50 was 1460 nM. Work on `CN1CC(c2cc(OCc3ccc(F)cc3)ncn2)=C(O)C1=O` [Compound B-12-b, 4-[6-(4-Fluorobenzyloxyl)pyrimidine-4-yl]-3-hydroxy-1-methyl-1,5-dihydropyrrole-2-one] yielded an IC50 of 666 nM. Molecule `CCCCN1CC(C(=O)c2ccc(Cc3ccc(F)cc3)o2)=C(O)C1=O` [Compound A-17-c, 1-Butyl-4-[5-(4-fluorobenzyl)furan-2-carbonyl]-3-hydroxy-1,5-dihydropyrrole-2-one] has an IC50 of 2630 nM.

System: not given
Test: not given
Details: not given
`Cn1ccc(-c2nnc(Cc3ccc(F)cc3)o2)c(O)c1=O` [Compound K-4, 4-[5-(4-fluorobenzyl)-[1,3,4]oxadiazole-2-yl]-3-hydroxy-1-methyl-1H-pyridine-2-one] gave a melting point of 216 to 218 °C. For `O=C1CCCC(C(=O)c2ccc(Cc3ccc(F)cc3)o2)=C1O` [Compound F-4, 3-[5-(4-fluorobenzyl)furan-2-carbonyl]-2-hydroxy-2-cyclohexene-1-one], the melting point was 133 to 134 °C. In the case of `CN1CC(C(=O)c2cccc(Cc3ccc(F)cc3)c2)=C(O)C1=O` [Compound A-12-a, 4-[3-(4-Fluorobenzyl)benzoyl]-3-hydroxy-1-methyl-1,5-dihydropyrrole-2-one], the melting point was 135 to 137 °C. In the case of `CC(C)N1CC(c2cc(CCc3ccc(F)cc3)ccn2)=C(O)C1=O`, the melting point was 167 to 168 °C. `CC(C)N1CC(C(=O)c2occc2Cc2ccc(F)cc2)=C(O)C1=O` gave a melting point of 197 to 199 °C. For `O=C(C1=C(O)C(=O)N(CC(O)CO)C1)c1occc1Cc1ccc(F)cc1` (stereo not drawn), the melting point was 208 to 210 °C. `O=C(NCc1ccc(F)cc1)c1oc2ccccc2c(=O)c1O` showed a melting point of 235 to 236 °C. In the case of `CC(C)N1CC(C(=O)c2cnn(Cc3ccc(F)cc3)c2)=C(O)C1=O`, the melting point was 129.5 to 131 °C. Work on `CC(C)N1CC(c2nccc(OCc3ccc(F)cc3)n2)=C(O)C1=O` yielded a melting point of 148 to 149 °C. In the case of `O=C(C1=C(O)C(=O)N(CCN2CCCCC2)C1)c1ccc(Cc2ccc(F)cc2)o1`, the melting point was 228 to 232 °C (dec.). Work on `COCCN1CC(C(=O)c2occc2Cc2ccc(F)cc2)=C(O)C1=O` yielded a melting point of 170 °C. Work on `CN1CC(c2nccc(CCc3ccccc3)n2)=C(O)C1=O` yielded a melting point of 118 to 119 °C. With `COC(=O)c1cc(OCc2ccc(F)cc2)c2c(=O)c(O)c(-c3ncnn3C)oc2c1` the melting point was 253 to 255 °C. Molecule `CC(C)N1CC(c2nccc(OCc3ccccc3)n2)=C(O)C1=O` has a melting point of 155 to 157 °C. With `Cc1nc(=O)c(O)c(-c2ccc(Oc3ccc(F)cc3)cn2)[nH]1` the melting point was 255 to 256 °C. Molecule `CN1CC(c2ccc(OCc3ccc(F)cc3)cn2)=C(O)C1=O` has a melting point of 210 to 211 °C. `CC(C)N1CC(c2cc(C(Cc3ccc(F)cc3)Cc3ccc(F)cc3)ncn2)=C(O)C1=O` showed a melting point of 181 to 183 °C. Molecule `CC(C)N1CC(c2ncc(OCc3ccc(F)cc3)cn2)=C(O)C1=O` has a melting point of 219 to 221 °C. `CN1CC(C(=O)c2ccc(Cc3ccccc3)o2)=C(O)C1=O` showed a melting point of 116 to 118 °C. In the case of `CN1CC(c2ncc(CCc3ccc(F)cc3)s2)=C(O)C1=O`, the melting point was 214 to 216 °C. With `CCN1CC(C(=O)c2oc(C(C)(C)C)cc2Cc2ccc(F)cc2)=C(O)C1=O` the melting point was 141 to 143 °C. In the case of `COc1cc(F)ccc1Cc1ccc(C(=O)C2=C(O)C(=O)N(C(C)C)C2)o1`, the melting point was 112 to 113 °C. Work on `CN1CC(c2ncc(Oc3ccccc3)cn2)=C(O)C1=O` yielded a melting point of 207 to 208 °C. For `CN1CC(c2cc(CCc3ccc(F)cc3)ncn2)=C(O)C1=O`, the melting point was 225 to 228 °C. Work on `CN1CC(c2cc(CCc3ccc(F)cc3)ccn2)=C(O)C1=O` yielded a melting point of 167 to 168 °C. For `O=C(C1=C(O)C(=O)N(C2CCCC2)C1)c1ccc(Cc2ccc(F)cc2)o1`, the melting point was 157 to 159 °C. Work on `CC(C)(C)N1CC(c2cc(CCc3ccccc3)ncn2)=C(O)C1=O` yielded a melting point of 199 to 200 °C. `CC(C)Oc1cccc(Cc2ccc(C(=O)C3=C(O)C(=O)N(C(C)C)C3)o2)c1` gave a melting point of 98 to 99 °C. Work on `CC(C)N1C(=O)C(O)=C(C(=O)c2ccc(Cc3ccc(F)cc3)o2)C1C` (stereo not drawn) yielded a melting point of 120 to 122 °C. Work on `CC(C)N1CC(c2ccc(Oc3ccccc3)cn2)=C(O)C1=O` yielded a melting point of 181 to 183 °C. `Cn1cnc(-c2oc3cccc(OCc4ccc(F)cc4)c3c(=O)c2O)n1` showed a melting point of 264 to 266 °C. Molecule `Cn1ncnc1-c1oc2cccc(OCCc3ccc(F)cc3)c2c(=O)c1O` has a melting point of 215 to 217 °C. In the case of `CC(C)N1CC(c2cc(CCc3ccc(F)cc3)ncn2)=C(O)C1=O`, the melting point was 225 to 228 °C. Work on `CN1CC(c2ncc(Oc3ccc(F)cc3)cn2)=C(O)C1=O` yielded a melting point of 230 to 232 °C. For `COc1cc(Cc2ccc(C(=O)C3=C(O)C(=O)N(C(C)C)C3)o2)ccc1F`, the melting point was 160 to 161 °C. With `CN1CC(c2ccc(Oc3ccc(F)cc3)cn2)=C(O)C1=O` the melting point was 229 to 230 °C. `CN1CC(C(=O)c2oc(C3CCCCC3)cc2Cc2ccc(F)cc2)=C(O)C1=O` gave a melting point of 175 to 176 °C. `CC(C)N1CC(C(=O)c2cnc(Cc3ccc(F)cc3)o2)=C(O)C1=O` gave a melting point of 174 to 178 °C. `O=c1c(O)c(-c2ncc(Oc3ccccc3)cn2)oc2ccccc12` showed a melting point of 212 °C. Molecule `COCCNC(=O)c1cc(=O)c(O)c(C(=O)c2ccc(Cc3ccc(F)cc3)o2)o1` has a melting point of 177 to 179 °C. For `CC(C)N1CC(c2ncc(Oc3ccc(F)cc3)cn2)=C(O)C1=O`, the melting point was 165 to 166 °C. Work on `CCC(CC)N1CC(c2cc(CCc3ccccc3)ncn2)=C(O)C1=O` yielded a melting point of 182 to 183 °C. For `CN1CC(C(=O)c2sccc2Cc2ccc(F)cc2)=C(O)C1=O`, the melting point was 181 to 183 °C. Molecule `CC(C)N1CC(c2cc(CCc3ccccc3)cnn2)=C(O)C1=O` has a melting point of 182 to 184 °C. Molecule `CN1CC(c2cc(C(Cc3ccc(F)cc3)Cc3ccc(F)cc3)ncn2)=C(O)C1=O` has a melting point of 162 to 164 °C. Molecule `CC(C)N1CC(C(=O)c2ccc(Cc3cccc4ccccc34)o2)=C(O)C1=O` has a melting point of 165 to 166.5 °C. For `CN1CC(C(=O)c2coc(Cc3ccc(F)cc3)c2)=C(O)C1=O`, the melting point was 158 to 160 °C. In the case of `CN1CC(c2cnc(Oc3ccccc3)cn2)=C(O)C1=O`, the melting point was 233 to 235 °C. `O=C(c1ccc(Cc2ccc(F)cc2)o1)c1occ(Br)c(=O)c1O` showed a melting point of 191 to 192 °C. Molecule `Cc1nc(=O)c(O)c(-c2nnc(Cc3ccc(F)cc3)o2)[nH]1` has a melting point of 283 to 286 °C.

From patent US9572813B2, “Antiviral agent” (SHIONOGI & CO., LTD., priority 2001, dated 2017)
